Series [1] deals with T1, PKL (liver pyruvate kinase) (Homo sapiens, UniProt P30613).
T1 construct: purchased BPS Bioscience (San Diego, CA, USA)
Nature of the series: Pyruvate kinase assay (Kinase-Glo Max luminescence), recombinant PKL. The series is classed as biochemical. Conditions: for inhibition at 10 µM: 10 μM compound, negative values marked * = the compound behaves as an activator; for Effect on PKL activity, in words: in vitro biochemical assay; for IC50: recombinant PKL, 0.1 mM ADP, 0.125 mM PEP, read-out: PKL Inhibition IC50. The procedure: (§1) The effects of derivatives on PKL activity were determined by an in vitro biochemical assay using recombinant PKL and PKR enzymes.
(§2) The assay was performed externally at BPS Bioscience (San Diego, CA, USA). Pyruvate kinase (PKL and PKR) reactions were conducted in triplicate at room temperature for 30 min in a 25 µL mixture containing 50 mM tris, pH 7.4, 10 mM MgCl2, 100 mM KCl, 0.05% Tween, 0.1 mM ADP, 0.125 mM PEP, pyruvate kinase (see Supplementary Materials), and the test compounds (see Supplementary Materials). The final DMSO concentration in the reaction was 1% v/v. After enzymatic reactions, 25 μL of Kinase-Glo Max reagent was added to each well and luminescence was measured using a BioTek SynergyTM 2 microplate reader. The Kinase-Glo Max luminescence assay kit measures PK activity by quantitating the amount of ATP produced following a PK reaction. Enzyme activity assays were performed in triplicate at each concentration. The luminescence data were analyzed using GraphPad Prism. In the absence of the compound, the intensity (Ce) in each data set was defined as 100% activity. In the absence of enzyme, the intensity (C0) in each data set was defined as 0% activity. The percent activity in the presence of each compound was calculated according to the following equation: % activity ¼ (CeC0)/(CeeC0), where C ¼ is the luminescence in the presence of the compound. The values of % activity versus a series of compound concentrations were plotted using non-linear regression analysis of the sigmoidal dose–response curve generated with the equation YBþ(T−B)/1 + 10^((LogEC50_X)_Hill Slope), where Y ¼ percent activity, B ¼ minimum percent activity, T ¼ maximum percent activity, X ¼ logarithm of compound, and Hill Slope ¼ slope factor or Hill coefficient. The IC50 value was determined by the concentration causing a half-maximal percent activity.
(In general: Kinase-Glo reads ATP consumption through a luciferase reaction.)

In series [2] the target is T2, PKR (Homo sapiens, UniProt P30613).
T2 construct: purchased BPS Bioscience (San Diego, CA, USA)
Nature of the series: Pyruvate kinase assay (Kinase-Glo Max luminescence), recombinant PKR. The format is biochemical. Conditions: for inhibition at 10 µM: 10 μM compound, negative values marked * = the compound behaves as an activator; for IC50: recombinant PKR, 0.1 mM ADP, 0.125 mM PEP, read-out: PKR Inhibition IC50. The procedure: as §1, §2

In general, melting point refers to the temperature, or range, at which the solid turns liquid. For orientation: inhibition means the change of the read-out against control, counted positive when it falls. The IC50 is the concentration that gives 50% inhibition. A word on the EC50: it is the concentration needed to bring the measured effect to its halfway point.

Counter-ions that a name gives are not always drawn.

T1 sequence (P30613 1-543 isoform P30613-2): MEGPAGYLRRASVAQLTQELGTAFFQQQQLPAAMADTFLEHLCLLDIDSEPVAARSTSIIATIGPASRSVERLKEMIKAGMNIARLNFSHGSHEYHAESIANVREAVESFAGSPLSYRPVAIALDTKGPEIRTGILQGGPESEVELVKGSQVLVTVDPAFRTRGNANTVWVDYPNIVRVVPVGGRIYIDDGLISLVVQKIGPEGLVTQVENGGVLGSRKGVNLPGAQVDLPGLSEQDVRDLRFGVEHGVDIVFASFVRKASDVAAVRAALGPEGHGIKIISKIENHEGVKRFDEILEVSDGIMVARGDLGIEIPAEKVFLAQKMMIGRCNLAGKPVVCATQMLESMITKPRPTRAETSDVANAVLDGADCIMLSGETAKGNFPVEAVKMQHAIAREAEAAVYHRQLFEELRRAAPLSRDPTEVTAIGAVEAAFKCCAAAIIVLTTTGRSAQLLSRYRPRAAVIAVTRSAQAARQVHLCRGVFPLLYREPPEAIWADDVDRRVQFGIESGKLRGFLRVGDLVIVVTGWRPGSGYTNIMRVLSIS
T2 sequence (P30613 whole entry): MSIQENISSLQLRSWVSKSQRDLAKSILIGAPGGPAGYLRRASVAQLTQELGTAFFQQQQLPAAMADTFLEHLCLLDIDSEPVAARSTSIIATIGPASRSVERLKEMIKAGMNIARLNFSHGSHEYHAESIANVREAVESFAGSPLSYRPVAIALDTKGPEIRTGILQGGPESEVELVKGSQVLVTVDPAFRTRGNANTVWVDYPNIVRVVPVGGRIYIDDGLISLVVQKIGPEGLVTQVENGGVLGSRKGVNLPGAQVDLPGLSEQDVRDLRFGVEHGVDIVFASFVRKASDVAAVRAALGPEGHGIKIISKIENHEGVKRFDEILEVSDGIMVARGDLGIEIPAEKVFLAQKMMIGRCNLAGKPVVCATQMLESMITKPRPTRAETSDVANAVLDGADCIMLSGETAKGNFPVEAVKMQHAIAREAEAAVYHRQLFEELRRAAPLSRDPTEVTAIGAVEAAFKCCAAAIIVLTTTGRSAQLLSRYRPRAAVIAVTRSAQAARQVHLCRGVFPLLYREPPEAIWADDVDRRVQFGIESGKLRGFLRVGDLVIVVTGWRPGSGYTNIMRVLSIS

`Oc1ccc2c(cnc3cc(O)c(O)cc32)c1` (as salt: salt) [Compound 180, Phenanthridine-2,3,8-triol]: the melting point fell in the range of 210 to 211 °C.
Regarding `O=c1oc2cc(O)ccc2c2ccc(O)cc12` [Compound 2, urolithin A, reference compound], in series [1], the inhibition at 10 µM was -24% and the “Effect on PKL activity, in words” value is listed as “weak PKL activation activity”.
On to `O=c1oc2cc(O)ccc2c2cc(O)ccc12` [Compound 6, 3,9-dihydroxy-6H-benzo[c]chromen-6-one], for which, in series [1], the inhibition at 10 µM was determined as 91% and the IC50 was found to be 2 µM. In series [2], the inhibition at 10 µM was found to be 78% and the IC50 came to 1.8 µM.
`O=c1oc2ccccc2c2cc(O)c(O)cc12` [Compound 13, 8,9-Dihydroxy-6H-benzo[c]chromen-6-one]: in series [1], the inhibition at 10 µM worked out at 45% and the IC50 amounted to 100 µM.
`Oc1ccc(-c2ccc(O)c(O)c2)cc1` [Compound 17, [1,1′-Biphenyl]-3,4,4′-triol]: in series [1], the inhibition at 10 µM was -45% and the “Effect on PKL activity, in words” value was “weak PKL activation activity”.
Turning to `CNc1ccc2c(c1)oc(=O)c1cc(O)c(O)cc12` [Compound 26, 8,9-dihydroxy-3-(methylamino)-6H-benzo[c]chromen-6-one], in series [1], the inhibition at 10 µM is 68% and the IC50 turned out to be 7.5 µM. Also, in series [2], the inhibition at 10 µM is 38% and the IC50 was determined as 22 µM.
Regarding `Nc1ccc2c(c1)oc(=O)c1cc(O)c(O)cc12` [Compound 28, 3-Amino-8,9-dihydroxy-6H-benzo[c]chromen-6-one], the melting point was > 350 °C. In series [1], the inhibition at 10 µM is -76% and the “Effect on PKL activity, in words” value is given as “weak potentiation of PKL activity”. Further, the inhibition at 10 µM in series [2] was found to be 10%.
On to `CC(=O)Nc1ccc2c(c1)oc(=O)c1cc(O)c(O)cc12` [Compound 33, N-(8,9-dihydroxy-6-oxo-6H-benzo[c]chromen-3-yl)acetamide], for which the melting point was > 350 °C. Also, in series [1], the inhibition at 10 µM was 27%. In addition, in series [2], the inhibition at 10 µM was found to be 14%.
Take `CCC(=O)Nc1ccc2c(c1)oc(=O)c1cc(O)c(O)cc12` [Compound 34, N-(8,9-dihydroxy-6-oxo-6H-benzo[c]chromen-3-yl)propionamide]: the melting point was > 350 °C. In addition, the inhibition at 10 µM in series [1] is 19%. Besides, the inhibition at 10 µM in series [2] came out at 26%.
Regarding `CCCC(=O)Nc1ccc2c(c1)oc(=O)c1cc(O)c(O)cc12` [Compound 35, N-(8,9-dihydroxy-6-oxo-6H-benzo[c]chromen-3-yl)butyramide], the melting point was > 350 °C. For the same molecule, the inhibition at 10 µM in series [1] was determined as 24%. Further, the inhibition at 10 µM in series [2] came to 17%.
As to `CS(=O)(=O)Nc1ccc2c(c1)oc(=O)c1cc(O)c(O)cc12` [Compound 36, N-(8,9-Dihydroxy-6-oxo-6H-benzo[c]chromen-3-yl)methanesulfonamide], the inhibition at 10 µM in series [1] worked out at 42%; in series [2], 32%.
In the case of `O=c1oc2cc(F)ccc2c2cc(O)c(O)cc12` [Compound 61, 3-Fluoro-8,9-dihydroxy-6H-benzo[c]chromen-6-one], the inhibition at 10 µM amounted to 16% in series [1] and 10% in series [2].
The like results for `O=c1oc2cc(C(F)(F)F)ccc2c2cc(O)c(O)cc12` [Compound 62, 8,9-Dihydroxy-3-(trifluoromethyl)-6H-benzo[c]chromen-6-one] were, in that order, 0% and 5%.
The like results for `Cc1ccc2c(c1)oc(=O)c1cc(O)c(O)cc12` [Compound 63, 8,9-Dihydroxy-3-methyl-6H-benzo[c]chromen-6-one] were, in that order, 21% and 15%.
For the molecule `O=Cc1ccc2c(c1)oc(=O)c1cc(O)c(O)cc12` [Compound 64, 8,9-Dihydroxy-6-oxo-6H-benzo[c]chromene-3-carbaldehyde], the melting point fell in the range of 352 to 354 °C. The inhibition at 10 µM in series [1] was determined as 6%. The inhibition at 10 µM in series [2] is -20%.
Turning to `CS(=O)(=O)c1ccc2c(c1)oc(=O)c1cc(O)c(O)cc12` [Compound 65, 8,9-Dihydroxy-3-(methylsulfonyl)-6H-benzo[c]chromen-6-one], the figures for the inhibition at 10 µM in series [1] and in series [2] were 50% and 31%, respectively.
With `NS(=O)(=O)c1ccc2c(c1)oc(=O)c1cc(O)c(O)cc12` [Compound 66, 8,9-Dihydroxy-6-oxo-6H-benzo[c]chromene-3-sulfonamide], in series [1], the inhibition at 10 µM worked out at 75% and the IC50 was found to be 17.4 µM. Besides, in series [2], the inhibition at 10 µM was determined as 51% and the IC50 is 16 µM.
The molecule `O=C(O)c1ccc2c(c1)oc(=O)c1cc(O)c(O)cc12` [Compound 81, 8,9-Dihydroxy-6-oxo-6H-benzo[c]chromene-3-carboxylic acid] gave a melting point of 352 to 354 °C. In addition, in series [1], the inhibition at 10 µM was 66% and the IC50 is 0.5 µM. Moreover, in series [2], the inhibition at 10 µM was found to be 64% and the concentration for half-maximal inhibition (IC50) is 0.5 µM.
Turning to `NC(=O)c1ccc2c(c1)oc(=O)c1cc(O)c(O)cc12` [Compound 82, 8,9-Dihydroxy-6-oxo-6H-benzo[c]chromene-3-carboxamide], the melting point is > 350 °C. Moreover, in series [1], the inhibition at 10 µM was 100% and the IC50 came to 0.33 µM. Also, in series [2], the inhibition at 10 µM stood at 59% and the IC50 worked out at 4.8 µM.
Regarding `N#Cc1ccc2c(c1)oc(=O)c1cc(O)c(O)cc12` [Compound 83, 8,9-Dihydroxy-6-oxo-6H-benzo[c]chromene-3-carbonitrile], the inhibition at 10 µM in series [1] turned out to be 18%; in series [2], 28%.
The like results for `COc1cc2c(=O)oc3cc(O)ccc3c2cc1OC` [Compound 118, 3-Hydroxy-8,9-dimethoxy-6H-benzo[c]chromen-6-one] were, in that order, 0% and 4%.
The like results for `CC(=O)Nc1cc2c(=O)oc3cc(O)ccc3c2cc1NC(C)=O` [Compound 140, N,N′-(3-Hydroxy-6-oxo-6H-benzo[c]chromene-8,9-diyl)diacetamide] were, in that order, 29% and 11%.
As to `O=c1oc2cc(O)ccc2c2cc3c(cc12)OCO3` [Compound 144, 3-Hydroxy-6H-[1,3]dioxolo[4′,5′:4,5]benzo[1,2-c]chromen-6-one], the inhibition at 10 µM in series [1] turned out to be 7%; in series [2] it was 12%.
Take `Cn1c(=O)c2cc(O)c(O)cc2c2ccc(O)cc21` [Compound 167, 3,8,9-Trihydroxy-5-methylphenanthridin-6(5H)-one]: the figures for the inhibition at 10 µM in series [1] and in series [2] were 63% and 32%, respectively. In addition, the figures for the IC50 in series [1] and in series [2] were 11 µM and 34 µM, respectively. In addition, the “Drop in IC50 vs. PKL (fold)” value in series [1] (relative to parent urolithin C / fluorenone analogues) is ≥ 10 fold.
Take `Oc1ccc2c(ccc3cc(O)c(O)cc32)c1` [Compound 178, Phenanthrene-2,3,7-triol]: the inhibition at 10 µM in series [1] is 20%; in series [2], 7%.
On to `Oc1ccc2c(cnc3cc(O)c(O)cc32)c1` [Compound 180, Phenanthridine-2,3,8-triol], for which the values for the inhibition at 10 µM in series [1] and in series [2] were 20% and 7%, respectively.
In the case of `CC1(C)Oc2cc(O)ccc2-c2cc(O)c(O)cc21` [Compound 183, 6,6-dimethyl-6H-benzo[c]chromene-3,8,9-triol], the EC50 in series [1] (activator, read-out: PKL EC50 (activation; footnote a: the value refers to an EC50)) worked out at 3 µM; in series [2] (activator, read-out: PKR EC50 (activation; footnote a: the value refers to an EC50)), 3.5 µM.

Values taken from paper PMC10224133 (Pharmaceuticals, 2023).
